From patent US6358885B1, “Substituted phenylheterocyclic herbicides” (Mississippi State University, priority 1992, dated 2002)

What was measured:
rape = assay: Test B preemergence/postemergence greenhouse plant response rating 0 to 10; type: in vivo, Brassica napus; settings: 0 to 10 scale
Outline: (§1)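 Both application timings were run together: seeds got compound preemergence, and established seedlings (two to eighteen cm) got it postemergence. Non-phytotoxic solvent carried the chemical. Ratings are visual, versus controls, at twelve to sixteen days.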

broadleaf signalgrass = assay: Test G preemergence/postemergence greenhouse plant response rating 0 to 100; type: in vivo, Brachiaria plantaginea; settings: 0 to 100 scale
Outline: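 Scoring: visual injury at 13 to 21 days post-application, compared with untreated controls. Planting: one species per pot in greenhouse medium. Dosing: compound in non-phytotoxic solvent, within one day of sowing for preemergence or at 2–4 leaves for postemergence.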

cheatgrass = assay: Test B preemergence/postemergence greenhouse plant response rating 0 to 10; type: in vivo, Bromus secalinus; settings: for Plant response rating, Cheatgrass: 0 to 10 scale
Outline: as §1

crabgrass = assay: as above; type: in vivo, Digitaria spp.; settings: for Plant response rating, Crabgrass: 0 to 10 scale
Outline: as §1

barnyardgrass = assay: as above; type: in vivo, Echinochloa crus-galli; settings: for Plant response rating, Barnyardgrass: 0 to 10 scale
Outline: as §1

morningglory [1] = assay: as above; type: in vivo, Ipomoea hederacea; settings: 0 to 10 scale
Outline: as §1

soybean = assay: Test C preemergence/postemergence greenhouse plant response rating 0 to 100; type: in vivo, Glycine max; settings: POSTEMERGENCE
Outline: (§2)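 Compounds in non-phytotoxic solvent went onto sandy loam before emergence (seeded one day earlier) or onto plants at the one-to-four leaf stage. Duck salad was treated via flood water (~2.5 cm, maintained) over silt loam.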

chickweed = assay: Test B preemergence/postemergence greenhouse plant response rating 0 to 10; type: in vivo, Stellaria media; settings: POSTEMERGENCE
Outline: as §1

lambsquarters = assay: Test C preemergence/postemergence greenhouse plant response rating 0 to 100; type: in vivo, Chenopodium album; settings: POSTEMERGENCE
Outline: as §2

corn = assay: Test B preemergence/postemergence greenhouse plant response rating 0 to 10; type: in vivo, Zea mays; settings: for Plant response rating, Corn: 0 to 10 scale
Outline: as §1

barley = assay: Test C preemergence/postemergence greenhouse plant response rating 0 to 100; type: in vivo, Hordeum vulgare; settings: POSTEMERGENCE
Outline: as §2

velvetleaf = assay: Test B preemergence/postemergence greenhouse plant response rating 0 to 10; type: in vivo, Abutilon theophrasti; settings: 0 to 10 scale
Outline: as §1

giant foxtail = assay: as above; type: in vivo, Setaria faberii; settings: 0 to 10 scale
Outline: as §1

morningglory [2] = assay: Test C preemergence/postemergence greenhouse plant response rating 0 to 100; type: in vivo, Ipomoea hederacea; settings: POSTEMERGENCE
Outline: as §2

With `CC(C)N1C(=O)COc2cc(F)c(-c3nn4c(c3Cl)CCCC4)cc21` [Compound 31] the “Plant response rating, Rape” value (rape; POSTEMERGENCE, Rate 10 g/ha) was 5, the “Plant response rating, Rape” value (rape; POSTEMERGENCE, Rate 50 g/ha) was 9 and the “Plant response rating, Rape” value (rape; PREEMERGENCE, Rate 50 g/ha) was 1. For the same compound, the “Plant response rating, Brdlf Sgnlgrass” value (broadleaf signalgrass; POSTEMERGENCE, Rate 125 g/ha) was 0, the “Plant response rating, Brdlf Sgnlgrass” value (broadleaf signalgrass; POSTEMERGENCE, Rate 250 g/ha) was 0 and the “Plant response rating, Brdlf Sgnlgrass” value (broadleaf signalgrass; PREEMERGENCE, Rate 125 g/ha) was 0. The “Plant response rating, Brdlf Sgnlgrass” value (broadleaf signalgrass; PREEMERGENCE, Rate 250 g/ha) was 0, the “Plant response rating, Cheatgrass” value (cheatgrass; POSTEMERGENCE, Rate 10 g/ha) was 5 and the “Plant response rating (0 to 10 scale), Cheatgrass” value (cheatgrass; POSTEMERGENCE, Rate 50 g/ha) was 6. For the same compound, the “Plant response rating, Cheatgrass” value (cheatgrass; PREEMERGENCE, Rate 10 g/ha) was 2, the “Plant response rating, Cheatgrass” value (cheatgrass; PREEMERGENCE, Rate 50 g/ha) was 6 and the “Plant response rating, Crabgrass” value (crabgrass; POSTEMERGENCE, Rate 10 g/ha) was 4. The “Plant response rating (0 to 10 scale), Crabgrass” value (crabgrass; POSTEMERGENCE, Rate 50 g/ha) was 4, the “Plant response rating, Crabgrass” value (crabgrass; PREEMERGENCE, Rate 10 g/ha) was 0 and the “Plant response rating, Crabgrass” value (crabgrass; PREEMERGENCE, Rate 50 g/ha) was 2. For the same compound, the “Plant response rating, Barnyardgrass” value (barnyardgrass; POSTEMERGENCE, Rate 10 g/ha) was 4, the “Plant response rating (0 to 10 scale), Barnyardgrass” value (barnyardgrass; POSTEMERGENCE, Rate 50 g/ha) was 6 and the “Plant response rating, Barnyardgrass” value (barnyardgrass; PREEMERGENCE, Rate 10 g/ha) was 0. For the same compound, the “Plant response rating, Barnyardgrass” value (barnyardgrass; PREEMERGENCE, Rate 50 g/ha) was 3, the “Plant response rating, Morningglory” value (morningglory [1]; POSTEMERGENCE, Rate 10 g/ha) was 9 and the “Plant response rating, Morningglory” value (morningglory [1]; POSTEMERGENCE, Rate 50 g/ha) was 10. The “Plant response rating, Morningglory” value (morningglory [1]; PREEMERGENCE, Rate 50 g/ha) was 5, the “Plant response rating, Soybean” value (soybean; 62 g/ha, 0 to 100 scale) was 80 and the “Plant response rating (0 to 100), Soybean” value (soybean; Rate 1 g/ha) was 30. The “Plant response rating (0 to 100), Soybean” value (soybean; Rate 4 g/ha) was 40, the “Plant response rating (0 to 100), Soybean” value (soybean; Rate 16 g/ha) was 60 and the “Plant response rating, Chickweed” value (chickweed; Rate 10 g/ha, 0 to 10 scale) was 10. The “Plant response rating (0 to 10 scale), Chickweed” value (chickweed; Rate 50 g/ha) was 10, the “Plant response rating Lambsquarters” value (lambsquarters; 62 g/ha, 0 to 100 scale) was 95 and the “Plant response rating (0 to 100), Lambsquarters” value (lambsquarters; Rate 1 g/ha) was 40. The “Plant response rating (0 to 100), Lambsquarters” value (lambsquarters; Rate 16 g/ha) was 85, the “Plant response rating, Corn” value (corn; POSTEMERGENCE, Rate 10 g/ha) was 4 and the “Plant response rating (0 to 10 scale), Corn” value (corn; POSTEMERGENCE, Rate 50 g/ha) was 3. For the same compound, the “Plant response rating, Corn” value (corn; PREEMERGENCE, Rate 50 g/ha) was 0, the “Plant response rating Barley Igri” value (barley; 62 g/ha, 0 to 100 scale) was 50 and the “Plant response rating (0 to 100), Barley Igri” value (barley; Rate 1 g/ha) was 20. The “Plant response rating (0 to 100), Barley Igri” value (barley; Rate 4 g/ha) was 30, the “Plant response rating (0 to 100), Barley Igri” value (barley; Rate 16 g/ha) was 40 and the “Plant response rating, Velvetleaf” value (velvetleaf; POSTEMERGENCE, Rate 10 g/ha) was 10. For the same compound, the “Plant response rating, Velvetleaf” value (velvetleaf; POSTEMERGENCE, Rate 50 g/ha) was 10, the “Plant response rating, Velvetleaf” value (velvetleaf; PREEMERGENCE, Rate 50 g/ha) was 9 and the “Plant response rating, Giant foxtail” value (giant foxtail; POSTEMERGENCE, Rate 10 g/ha) was 5. For the same compound, the “Plant response rating, Giant foxtail” value (giant foxtail; POSTEMERGENCE, Rate 50 g/ha) was 5, the “Plant response rating, Giant foxtail” value (giant foxtail; PREEMERGENCE, Rate 10 g/ha) was 0 and the “Plant response rating, Giant foxtail” value (giant foxtail; PREEMERGENCE, Rate 50 g/ha) was 3. For the same compound, the “Plant response rating, Morningglory” value (morningglory [2]; 62 g/ha, 0 to 100 scale) was 100, the “Plant response rating (0 to 100), Morningglory” value (morningglory [2]; Rate 1 g/ha) was 70 and the “Plant response rating (0 to 100), Morningglory” value (morningglory [2]; Rate 4 g/ha) was 100. The “Plant response rating (0 to 100), Morningglory” value (morningglory [2]; Rate 16 g/ha) was 100.
